AC50, IC50 and EC50 data for three molecules are collected here from ChEMBL document CHEMBL1201862, “PubChem BioAssay data set” (2004).

Assay [1] deals with T1, Replicative DNA helicase DnaB (Mycobacterium tuberculosis, UniProt P9WMR3).
T1 sequence (P9WMR3 whole entry): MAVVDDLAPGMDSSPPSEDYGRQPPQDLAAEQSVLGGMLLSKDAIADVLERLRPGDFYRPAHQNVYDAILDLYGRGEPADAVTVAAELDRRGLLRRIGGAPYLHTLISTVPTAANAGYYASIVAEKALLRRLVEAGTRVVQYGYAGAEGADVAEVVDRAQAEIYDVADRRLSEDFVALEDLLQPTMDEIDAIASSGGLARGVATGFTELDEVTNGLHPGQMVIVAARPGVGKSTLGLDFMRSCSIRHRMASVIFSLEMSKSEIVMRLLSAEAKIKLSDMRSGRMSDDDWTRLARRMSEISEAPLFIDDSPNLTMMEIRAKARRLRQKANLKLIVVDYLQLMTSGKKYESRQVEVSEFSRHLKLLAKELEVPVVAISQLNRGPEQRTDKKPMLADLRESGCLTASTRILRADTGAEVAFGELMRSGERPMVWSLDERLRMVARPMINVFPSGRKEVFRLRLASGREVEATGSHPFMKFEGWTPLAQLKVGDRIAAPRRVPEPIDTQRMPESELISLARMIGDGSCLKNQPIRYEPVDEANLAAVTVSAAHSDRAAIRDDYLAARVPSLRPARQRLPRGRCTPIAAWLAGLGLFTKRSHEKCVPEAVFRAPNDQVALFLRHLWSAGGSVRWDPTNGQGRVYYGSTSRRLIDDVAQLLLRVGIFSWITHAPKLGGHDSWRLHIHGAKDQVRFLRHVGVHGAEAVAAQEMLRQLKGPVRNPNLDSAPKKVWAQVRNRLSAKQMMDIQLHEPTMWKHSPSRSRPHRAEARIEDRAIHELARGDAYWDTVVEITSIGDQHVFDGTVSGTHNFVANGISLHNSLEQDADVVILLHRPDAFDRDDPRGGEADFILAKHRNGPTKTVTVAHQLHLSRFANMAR
The assay is described as follows: DnaB intein splicing inhibitors, dose response, biochemical, cell-free fluorescence (AID 449749). Format: functional.

Assay [2] in a line: antiviral protection against BTV-induced cell death – arbovirus, BSR cells, confirmation (AID 1250).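 Also: protection from viral cytopathic effect measured as cell viability by ATP luminescence.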 Format: functional.
Assay [3] deals with Bifunctional protein GlmU (Mycobacterium tuberculosis, UniProt P9WMN3). The assay is described as follows: Inhibitors of Mycobacterial Glucosamine-1-phosphate acetyl transferase (GlmU). Secondary screen. On the set-up: species or system Mycobacterium tuberculosis H37Rv.
Bifunctional protein GlmU, sequence (P9WMN3 whole entry, the tested form may be a part): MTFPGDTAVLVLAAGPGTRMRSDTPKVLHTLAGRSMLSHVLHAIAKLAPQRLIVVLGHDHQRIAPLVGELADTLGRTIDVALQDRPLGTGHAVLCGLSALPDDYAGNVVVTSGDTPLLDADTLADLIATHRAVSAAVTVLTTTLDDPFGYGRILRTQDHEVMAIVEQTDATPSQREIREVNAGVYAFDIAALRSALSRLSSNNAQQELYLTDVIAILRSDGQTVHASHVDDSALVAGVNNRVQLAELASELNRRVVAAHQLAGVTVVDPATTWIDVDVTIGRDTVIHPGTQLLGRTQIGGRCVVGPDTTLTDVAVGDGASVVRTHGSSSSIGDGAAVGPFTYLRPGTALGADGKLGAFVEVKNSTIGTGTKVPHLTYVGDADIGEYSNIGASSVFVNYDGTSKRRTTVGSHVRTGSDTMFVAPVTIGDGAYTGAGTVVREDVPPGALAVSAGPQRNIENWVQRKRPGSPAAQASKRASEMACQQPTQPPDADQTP
A short description of assay [4]: CCR5-tropic HIV-1 fusion blockers – cell-based, CCR5-tropic Env, dose response (AID 2279). Type of assay: functional.
In assay [5] the target is T2, Aminopeptidase N (Plasmodium falciparum FcB1/Columbia, UniProt O96935).
T2 sequence (O96935 whole entry): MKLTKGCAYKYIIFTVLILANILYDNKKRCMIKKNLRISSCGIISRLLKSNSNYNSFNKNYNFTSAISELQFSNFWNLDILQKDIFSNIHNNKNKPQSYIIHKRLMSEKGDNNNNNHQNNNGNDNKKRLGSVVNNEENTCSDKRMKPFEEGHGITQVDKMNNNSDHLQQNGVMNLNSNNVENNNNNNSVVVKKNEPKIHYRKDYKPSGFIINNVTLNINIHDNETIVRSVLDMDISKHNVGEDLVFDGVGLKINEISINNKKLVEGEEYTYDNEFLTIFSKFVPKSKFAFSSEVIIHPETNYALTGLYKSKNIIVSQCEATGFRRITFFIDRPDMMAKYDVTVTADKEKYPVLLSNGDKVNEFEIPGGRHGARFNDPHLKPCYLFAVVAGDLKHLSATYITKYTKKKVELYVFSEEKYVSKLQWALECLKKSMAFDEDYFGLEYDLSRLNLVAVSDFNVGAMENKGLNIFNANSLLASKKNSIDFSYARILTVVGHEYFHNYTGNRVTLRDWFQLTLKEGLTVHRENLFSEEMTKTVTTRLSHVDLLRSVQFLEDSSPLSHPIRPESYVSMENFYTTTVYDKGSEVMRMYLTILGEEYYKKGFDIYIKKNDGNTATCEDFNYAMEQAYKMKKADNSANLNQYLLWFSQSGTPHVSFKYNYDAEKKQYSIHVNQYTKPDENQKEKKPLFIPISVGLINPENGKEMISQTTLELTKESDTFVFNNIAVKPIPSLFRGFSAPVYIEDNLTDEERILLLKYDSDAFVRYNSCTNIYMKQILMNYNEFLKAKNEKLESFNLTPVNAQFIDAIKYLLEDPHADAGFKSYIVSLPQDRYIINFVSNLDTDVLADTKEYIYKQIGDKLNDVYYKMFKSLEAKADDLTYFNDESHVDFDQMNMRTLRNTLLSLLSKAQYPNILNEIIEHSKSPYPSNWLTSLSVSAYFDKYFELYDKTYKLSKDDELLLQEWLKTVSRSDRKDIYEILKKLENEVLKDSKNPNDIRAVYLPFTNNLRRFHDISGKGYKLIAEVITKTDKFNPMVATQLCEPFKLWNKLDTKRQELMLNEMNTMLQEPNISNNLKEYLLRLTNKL
The assay is described as follows: malaria alanyl aminopeptidase activity blockers – biochemical, fluorogenic H-Leu-NHMec substrate, 1536-well (AID 1445). Set-up: species or system Plasmodium falciparum 3D7, 3D7.

For assay [6], the target named is T3, Protein RecA (Mycobacterium tuberculosis, UniProt P9WHJ3).
T3 sequence (P9WHJ3 whole entry): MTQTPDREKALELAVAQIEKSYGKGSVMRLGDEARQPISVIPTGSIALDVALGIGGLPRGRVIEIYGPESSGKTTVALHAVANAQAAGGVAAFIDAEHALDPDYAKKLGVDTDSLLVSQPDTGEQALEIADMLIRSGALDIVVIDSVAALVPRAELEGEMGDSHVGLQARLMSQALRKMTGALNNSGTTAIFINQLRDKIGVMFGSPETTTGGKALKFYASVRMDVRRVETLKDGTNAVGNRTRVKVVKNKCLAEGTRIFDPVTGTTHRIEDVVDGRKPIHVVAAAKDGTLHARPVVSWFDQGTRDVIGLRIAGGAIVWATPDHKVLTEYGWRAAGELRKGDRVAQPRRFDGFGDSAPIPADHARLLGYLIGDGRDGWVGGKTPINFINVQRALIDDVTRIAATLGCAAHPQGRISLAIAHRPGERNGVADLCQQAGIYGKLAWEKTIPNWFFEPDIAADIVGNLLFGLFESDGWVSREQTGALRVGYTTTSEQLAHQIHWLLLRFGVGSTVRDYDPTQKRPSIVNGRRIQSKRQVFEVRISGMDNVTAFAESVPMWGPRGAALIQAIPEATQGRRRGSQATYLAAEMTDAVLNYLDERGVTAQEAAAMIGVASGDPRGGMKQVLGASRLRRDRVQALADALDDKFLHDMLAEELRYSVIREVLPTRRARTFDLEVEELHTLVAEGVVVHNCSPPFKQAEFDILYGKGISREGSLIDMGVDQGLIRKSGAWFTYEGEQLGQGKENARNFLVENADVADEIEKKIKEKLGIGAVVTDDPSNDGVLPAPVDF
Nature of the assay: Fluorescence Cell-Free Homogeneous Dose Retest to Identify Inhibitors of RecA-Intein Splicing Activity. [Related pubchem assays (depositor defined):AID2097, AID2223, AID489010, AID492950]. Type of assay: functional.

Assay [7] addresses T4, Estrogen receptor (Homo sapiens, UniProt P03372).
T4 sequence (P03372 whole entry): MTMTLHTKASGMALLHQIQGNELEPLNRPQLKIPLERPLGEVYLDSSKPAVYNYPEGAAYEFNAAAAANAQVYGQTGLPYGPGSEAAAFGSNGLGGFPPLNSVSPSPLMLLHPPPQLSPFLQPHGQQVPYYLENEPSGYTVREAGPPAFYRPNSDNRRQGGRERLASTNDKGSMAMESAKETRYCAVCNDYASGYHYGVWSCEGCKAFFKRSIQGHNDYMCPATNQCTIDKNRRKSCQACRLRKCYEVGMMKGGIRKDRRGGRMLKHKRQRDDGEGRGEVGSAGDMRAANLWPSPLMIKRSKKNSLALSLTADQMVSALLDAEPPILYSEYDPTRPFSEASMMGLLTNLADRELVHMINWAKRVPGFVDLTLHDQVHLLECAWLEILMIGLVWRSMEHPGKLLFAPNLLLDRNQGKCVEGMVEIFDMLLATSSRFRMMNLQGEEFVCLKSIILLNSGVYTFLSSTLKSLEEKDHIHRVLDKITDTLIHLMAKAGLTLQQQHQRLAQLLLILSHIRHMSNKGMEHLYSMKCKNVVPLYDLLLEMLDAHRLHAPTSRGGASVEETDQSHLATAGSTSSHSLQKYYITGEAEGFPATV
The assay is described as follows: blockers of SRC-3 recruitment to ERα – biochemical, ELISA, streptavidin-HRP readout, orthogonal assay, confirmation (AID 1079).

A short description of assay [8]: Counterscreen for IDE inhibitors: Luminescence-based cell-based high throughput dose response assay to identify compounds that are cytotoxic to HEK cells. [Related pubchem assays: 434962 (Primary screen (IDE inhibitors in singlicate)), 449730 (Counterscreen (Cytotoxicity in triplicate)), 435028 (Confirmation (IDE inhibitors in triplicate)) …. Format: functional. The settings on record: HEK293.

In assay [9] the target is T5, Insulin-degrading enzyme (Homo sapiens, UniProt P14735).
T5 sequence (P14735 whole entry): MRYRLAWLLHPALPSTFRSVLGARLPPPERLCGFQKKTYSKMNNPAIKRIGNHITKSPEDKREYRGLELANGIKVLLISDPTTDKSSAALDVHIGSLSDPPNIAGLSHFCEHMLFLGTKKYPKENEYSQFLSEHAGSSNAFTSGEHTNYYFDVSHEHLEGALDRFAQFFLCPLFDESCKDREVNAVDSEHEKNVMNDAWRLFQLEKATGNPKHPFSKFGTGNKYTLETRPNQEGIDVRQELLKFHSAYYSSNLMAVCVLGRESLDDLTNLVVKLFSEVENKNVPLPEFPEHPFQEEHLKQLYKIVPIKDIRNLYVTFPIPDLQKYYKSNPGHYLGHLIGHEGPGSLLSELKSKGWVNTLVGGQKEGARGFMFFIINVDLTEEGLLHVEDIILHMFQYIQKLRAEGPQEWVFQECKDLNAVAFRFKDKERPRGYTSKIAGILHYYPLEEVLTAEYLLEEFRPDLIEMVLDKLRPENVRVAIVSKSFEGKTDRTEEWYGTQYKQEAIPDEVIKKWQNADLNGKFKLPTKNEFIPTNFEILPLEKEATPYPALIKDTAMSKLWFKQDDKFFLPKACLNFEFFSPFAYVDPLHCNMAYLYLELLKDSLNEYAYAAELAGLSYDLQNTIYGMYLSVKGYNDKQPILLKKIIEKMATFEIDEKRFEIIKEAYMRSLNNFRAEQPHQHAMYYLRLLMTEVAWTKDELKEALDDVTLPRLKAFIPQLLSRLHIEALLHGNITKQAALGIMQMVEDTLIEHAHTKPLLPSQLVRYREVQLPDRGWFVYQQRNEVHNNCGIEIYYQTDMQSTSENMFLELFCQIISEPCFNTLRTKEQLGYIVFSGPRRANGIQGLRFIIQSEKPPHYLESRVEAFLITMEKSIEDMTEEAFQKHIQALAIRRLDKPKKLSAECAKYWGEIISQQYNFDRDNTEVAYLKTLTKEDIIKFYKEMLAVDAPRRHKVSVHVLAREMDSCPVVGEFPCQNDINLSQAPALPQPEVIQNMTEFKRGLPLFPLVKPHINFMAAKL
The assay is described as follows: Dose Response: Fluorescence polarization-based cell-based high throughput dose response assay for inhibitors of insulin-degrading enzyme (IDE). [Related pubchem assays: 434962 (Primary screen (IDE inhibitors in singlicate)), 449730 (Counterscreen (Cytotoxicity in triplicate)), 435028 (Confirmation (IDE inhibitors in triplicate)), 434984 (Summary …. Format: functional.

The target of assay [10] is T6, Corticotropin-releasing factor receptor 2/Corticotropin-releasing factor-binding protein (Homo sapiens, UniProt P24387+Q13324).
T6 sequence (Q13324 whole entry): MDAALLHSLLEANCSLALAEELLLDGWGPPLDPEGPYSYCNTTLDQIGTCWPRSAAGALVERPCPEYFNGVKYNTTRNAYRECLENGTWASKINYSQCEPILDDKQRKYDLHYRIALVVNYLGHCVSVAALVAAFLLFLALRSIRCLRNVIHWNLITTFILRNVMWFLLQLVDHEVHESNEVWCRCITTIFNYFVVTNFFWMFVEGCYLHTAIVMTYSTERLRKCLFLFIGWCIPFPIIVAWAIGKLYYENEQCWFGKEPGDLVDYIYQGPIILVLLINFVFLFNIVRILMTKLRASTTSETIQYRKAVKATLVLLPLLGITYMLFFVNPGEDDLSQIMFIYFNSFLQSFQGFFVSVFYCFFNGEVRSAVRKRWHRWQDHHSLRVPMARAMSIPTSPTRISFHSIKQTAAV
T6 sequence (P24387 whole entry): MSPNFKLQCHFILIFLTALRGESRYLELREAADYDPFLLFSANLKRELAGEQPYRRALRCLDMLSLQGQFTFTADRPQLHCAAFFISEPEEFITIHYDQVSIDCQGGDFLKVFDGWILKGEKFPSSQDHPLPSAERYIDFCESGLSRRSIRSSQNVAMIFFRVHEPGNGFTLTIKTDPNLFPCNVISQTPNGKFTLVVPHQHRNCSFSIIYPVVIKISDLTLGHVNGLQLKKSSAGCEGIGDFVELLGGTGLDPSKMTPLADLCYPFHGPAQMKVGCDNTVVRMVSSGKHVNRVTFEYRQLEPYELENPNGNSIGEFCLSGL
The assay is described as follows: activators of CRF receptor 2 with binding protein – uHTS hits, confirmation (AID 602473). Format: functional. The settings on record: read-out: EC50_Mean.

Molecules are shown by their SMILES. The source made the active and inactive calls. Some results are limits rather than exact numbers.

With `N#C/C(=C\c1ccc(O)c([N+](=O)[O-])c1)c1nc2ccccc2s1`, the AC50 in assay [1] was 7.01 µM (active). For the same molecule, the IC50 was > 100 µM (active) in [2], 71.8 µM (active) in assay [3], 3.41 µM (active) in assay [4] and 33.9 µM (active) in [5]. The EC50 in assay [6] was 4.58 µM (active).

On to `N#Cc1cccc(N2CCN(C(=O)CCCCCn3c(=S)[nH]c4ccccc4c3=O)CC2)c1`, for which, in assay [7], the half-maximal inhibitory concentration (IC50) is listed as 90 nM (not active).

Take `CCN(CC)c1ccc(/C=C2\CCC(/C=N/NC(=O)c3ccc(=O)n(C)c3)=C2N2CCOCC2)cc1`: the IC50 is 16.6 µM (not active) in assay [8] and 12.5 µM (not active) in assay [9]. Also, the EC50 in [10] is 5.19 µM (active).
